Measurements: patent US20100069476A1, “COMPOSITIONS AND METHODS FOR REDUCTION OF CUTANEOUS PHOTOAGEING” (MITSUI NORIN CO., LTD, priority 2005, published 2010)

Assays:
[1] = test system: H2O2; test: Intracellular release of H2O2 in skin cells after UVB (dihydrorhodamine 123), topical treatment; format: in vivo, mice; details: for effect on UVB-induced H2O2 production in cells: EGCG about 1 mg/cm^2, ascorbic acid about 0.5 mg/cm^2, topical; for H2O2 production in skin cells, control experiments without UVB: topical treatment individually
Protocol: 2. Hydrogen peroxide production as a marker of oxidative stress.
(§1) Hydrophilic cream was used as a vehicle.
After UVB exposure, a single cell suspension from the epidermis and dermis was prepared following procedures well known in the art. H2O2 was assayed using dihydrorhodamine 123 as a fluorescent dye probe. […] Treatment with ascorbic acid and EGCG inhibited UVB-induced H2O2 production in cells.

[2] = test system: oxidation of proteins in the skin; test: UVB-induced oxidation of proteins in the skin (protein carbonyl formation, OxyBlot western blot); format: in vivo, mice; details: EGCG about 1 mg/cm^2, ascorbic acid about 0.5 mg/cm^2, topical
Protocol: as §1
FIG. 4 depicts a western blot analysis using antibodies against carbonyl-containing proteins. Protein oxidation was determined following western blot analysis by using OxyBlot Protein Oxidation Detection kit (Intergen Company, Purchase, N.Y.).

[3] = test system: MMP-2, MMP-3, MMP-7 and MMP-9; test: UVB-induced expression of matrix metalloproteinases by western blot; format: in vivo, mice; details: EGCG about 1 mg/cm^2, ascorbic acid about 0.5 mg/cm^2, topical
Description: 4. Matrix metalloproteinases, like MMP-2, MMP-3, MMP-7 and MMP-9 which play a major role in degradation of extracellular matrix of the skin and leads to skin aging or wrinkle formation.
as §1
Most matrix proteins provide tensile strength to the skin, and are therefore thought to be associated with photoageing and/or wrinkling of skin. We previously reported that chronic exposure of skin to UVB induces the up-regulation of several MMP, particularly, MMP-2, MMP-3, MMP-7 and MMP-9. […] The blots were stripped and re-probed for β-actin antibody to verify equal protein loading and equal transfer of proteins from gel to membrane.

[4] = test system: TIMP; test: Expression of tissue inhibitor of matrix metalloproteinase in UVB exposed skin; format: in vivo, mice; details: topical
Description: 5. Tissue inhibitor of matrix metalloproteinase (TIMP).
Most matrix proteins provide tensile strength to the skin, and are therefore thought to be associated with photoageing and/or wrinkling of skin. […] The blots were stripped and re-probed for β-actin antibody to verify equal protein loading and equal transfer of proteins from gel to membrane.

[5] = test system: UV-induced markers of oxidative stress; test: UV-induced markers of oxidative stress and skin appearance, UVB one month on alternate days; format: in vivo, mice
Description: In another exemplary treatment, mice were exposed to UVB (90 mJ/cm^2) for a period of one month on alternate days with or without polyphenone E in the drinking water (0.2%, w/v). Remarkably, this protocol inhibited UV-induced markers of oxidative stress, however, to a lesser extent than topical treatment.

[6] = test system: UVB-induced adverse effects in the skin; test: Preliminary dose-dependent efficacy against UVB-induced adverse effects in the skin; format: in vivo, mice; details: topical 1 mg EGCG/cm^2 skin area, preliminary studies
Protocol: (§2) SKH-1 hairless mice were used at an age of between 6-8 weeks. The mice were UVB exposed (90 mJ/cm^2) for two months on alternate days for the present photoageing model. At the termination of the experiment, mice were sacrificed 24 hr after the last UV exposure, skin biopsies were collected for analyzing various parameters.
Ascorbic acid and EGCG (or polyphenon E) were dissolved at various concentrations in a hydrophilic cream and were topically applied on the mouse skin 25-30 min before each exposure of UVB. In preliminary studies, we tested the efficacy of AA and EGCG dose-dependently against UVB-induced adverse effects in the skin.

[7] = test system: SKH-1 hairless mice; details: for prevention of UVB-induced skin damage as measured by the bi-fold thickness test: topical at optimum dosages (AA 0.5 mg/cm^2, EGCG 1 mg/cm^2), UVB 90 mJ/cm^2 two months on alternate days
Protocol: as §2
Ascorbic acid and EGCG (or polyphenon E) were dissolved at various concentrations in a hydrophilic cream and were topically applied on the mouse skin 25-30 min before each exposure of UVB. […] Therefore, to evaluate the anti-photoaging effects, we used this dose in all the experiments performed.
Bi-fold skin thickness of the UV exposed skin site with or without the treatment of ascorbic acid (AA) and EGCG.
Control experiments were performed to verify skin damage due to UVB exposure at the above dosage regimen. […] In the below experiments, mice were irradiated to UVB (90 mJ/cm^2) for two months on alternate days to effect photoageing of the skin. Mice were topically treated either with AA, EGCG or a combination of AA (unless indicated otherwise at 0.5 mg EGCG/cm^2 skin area) and EGCG (unless indicated otherwise at 1 mg EGCG/cm^2 skin area) before each exposure of the UVB to determine the photoprotective effect of these agents. Hydrophilic cream was used as a vehicle. UVB alone irradiated mice (control) were topically treated with vehicle only before UVB exposure.
Therefore, and based on these findings, dosages of ascorbic acid for selected experiments were maintained at about or below 0.5 mg/cm^2.
To determine if the effect was additive or synergistic, ascorbic acid and EGCG were topically used at the above determined optimum dosages.

| SMILES | effect on UVB-induced H2O2 production in cells [1] | H2O2 production in skin cells, control experiments without UVB [1] | effect on UVB-induced oxidation of proteins [2] | effect on UVB-induced expression of selected MMP [3] | expression of TIMP [4] | chemopreventive efficacy, compared ([5]; UVB 90 mJ/cm^2 one month on alternate days) | skin appearance in comparison to UV alone exposed skin sites ([5]; plus UV exposed mice) | chemopreventive effects against UVB radiation [6] | prevention of UVB-induced skin damage as measured by the bi-fold thickness test [7] | dosage up to which photoprotection increased (bi-fold thickness test) ([7]; topical, little or no further beneficial effect at increasing dosages) | inflammatory reaction of skin ([7]; topical doses substantially above 0.5 mg/cm^2 of skin) | optimum dosage (protection measured by bi-fold skin thickness) ([7]; topical, data not shown) |
| --- | --- | --- | --- | --- | --- | --- | --- | --- | --- | --- | --- | --- |
| O=C(O[C@@H]1Cc2c(O)cc(O)cc2O[C@@H]1c1cc(O)c(O)c(O)c1)c1cc(O)c(O)c(O)c1 [EGCG, epigallocatechin gallate] | inhibited | did not induce H2O2 production | inhibited UVB-induced oxidation of proteins to some degree | inhibited UVB-induced expression of selected MMP to at least some degree | up-regulated | superior to polyphenone E | relatively better | significant chemopreventive effects | substantially less protection | about 1.0 mg/cm^2 |  |  |
| O=C1O[C@H]([C@@H](O)CO)C(O)=C1O [ascorbic acid] | inhibited | did not induce H2O2 production | inhibited UVB-induced oxidation of proteins to some degree | inhibited UVB-induced expression of selected MMP to at least some degree | up-regulated |  |  |  | substantially less protection |  | tended to provoke an inflammatory reaction | about 0.5 mg/cm^2 |
